US10808230B2, “Selection methods for genetically-modified T cells” (BOARD OF REGENTS, THE UNIVERSITY OF TEXAS SYSTEM, priority 2015, dated 2020)
“Also recorded” adds a separate entry of the source. Like-named read-outs stand apart in the source and are kept apart here.

Assays:
Assay type in all cases: cell-based, human
TCD4, FoxP3 [1] = assay: Selection or depletion of TCD4, FoxP3 in PBMC stimulated with anti-CD3/CD28 and IL-2 in presence of drug; details: for Selection of TCD4, FoxP3 in surviving population at lethal dose: freshly derived PBMC, day 7; for Selection or depletion of TCD4, FoxP3, dose dependence: thawed PBMC, 7 days
Protocol: (§1) Culture Conditions: Acellular stimulation was accomplished as previously described using soluble anti-CD3—30 ng/mL, anti-CD28—100 ng/mL, and human IL-2—50 IU/mL, as previously described. […] Acellular stimulation experiments received addition of toxic drug or treatment on the same day as stimulation.
Cultured T cells were washed in FACS staining solution[95] before surface antibody staining was performed in FACS staining solution with fluorochrome-conjugated antibodies at 4° C. for at least 30 minutes. Intracellular transcription factor and cytokine staining utilized the FoxP3/transcription factor staining buffer set manufacturer's protocol (eBioscience, 00-5523-00), and was performed following surface staining. The BD FACSCalibur (BD Biosciences) analyzed most samples expressing FoxP3. Flow cytometry data analysis utilized FlowJo v 10.0.5 (Tree Star Inc., Ashland, Oreg.). Flow cytometric imaging of cells stained for phosphorylated antigens was accomplished using the ImageStreamX Mark II (Amnis, Seattle, Wash.) with the following protocol; after surface staining, samples were fixed in 100% methanol (Sigma) for 1 hour at 4° C. before washing and staining in FoxP3/transcription factor staining buffer set wash buffer as outlined by the manufacturer's protocol. Analysis of image cytometry data utilized Amnis IDEAS v 6.0.
Drug Selection of TCD4, FoxP3 by MTX Occurs in Part Through Toxicity. In order to determine how MTX contributes to the selection of TCD4, FoxP3, freshly derived PBMC were stimulated with anti-CD3/CD28 antibodies and IL-2 in the presence of cytotoxic drugs or lethal γ-irradiation. […] See Bar-Nun S. et al., Biochimica et biophysica acta 1983, 741(1):123-127. […] See Cao M. et al., International journal of radiation biology 2011, 87(1):71-80.

Treg = assay: Sorted Treg and Teff treated with drug for 7 days, co-cultured with AaPC to Day 21; details: for Expression of CD25, CTLA-4, or loss of IL-2: Day 21; for Expression of Treg-specific marker LAP: Day 21, early drug treatment
Description: Healthy donor derived peripheral blood from MDACC Blood Bank, Houston, Tex., was subjected to density gradient centrifugation to isolate mononuclear cells which were either rested in complete media (CM) or frozen as previously outlined. The use of rested or frozen peripheral blood derived mononuclear cells (PBMC) is outlined in each experiment. T cells from PBMC were stimulated using thawed OKT3 antibody-loaded K562 clone #4, an activating and propagating cell (AaPC). See Singh H, et al, PloS one 2013, 8(5). The presence of mycoplasma was tested in AaPC before stimulation of T cells. Cell counting was accomplished by 0.1% Trypan Blue (Sigma-Aldrich, T8154) exclusion using automated cell counting (Nexcelcom, Lawrence, Mass.). Cell Isolation was accomplished using magnetic bead based sorting with the CD4+, CD25+ Regulatory T Cell Isolation Kit following the manufacturer's instructions (Miltenyi Biotec, San Diego, Calif., 130-091-301). Briefly, CD4^+ T cells were negatively selected before sorting one time with anti-CD25 beads was used to differentiate between effector T cells (CD25^neg) and T^reg (CD25^pos).
Sorted Treg Differentiate the Effects of MTX, 5-FU, and G418 on Selection in Bulk PBMC. Magnetic sorting for CD4 and CD25 expressing PBMC yielded a CD4+ CD25+ population that is widely considered to contain Treg, and a CD25neg population of effector T cells (Teff). See Miyara M. et al., Immunity 2009, 30(6):899-911. These populations were treated with the same concentrations of MTX, 5-FU, G418, or no treatment, as above, for the first 7 days of co-culture with AaPC. After this period of time, co-culture continued without drug by stimulating with AaPC every 7 days until Day 21. Cells were assayed at this time for expression of CD25, CTLA-4, LAP, and IL-2, as before. The experimental outline can be seen in FIG. 15A. A [^3H] thymidine incorporation assay was also performed to determine the effect of each drug on the functionality of propagated Treg.

Teff = assay: [3H] thymidine incorporation suppression assay, treated Treg mixed with untreated Teff; details: 72 hour suppression assay
Protocol: A thymidine incorporation assay was performed with anti-CD3/CD28 and IL-2 used to stimulate each well containing 2*10^5 viable cells. Varying ratios of effector T cells (Teff) to Treg were combined in each well and all wells were run in triplicate in U-bottom 96 well plates. At 48 hours 1 μCi [^3H] Thymidine (Perkin-Elmer, Waltham, Mass.) was added to each well, and 24 hours later the cells were assessed for radioactivity on a Top Count NXT (Perkin-Elmer). Treg mediated suppression of growth was determined by the following equation: (No Treatment Teff [cpm]−(Treg & No Treatment Teff [cpm]))/No Treatment Teff [cpm].

PBMC = tested on: PBMC
Protocol: as §1
Drug Selection of TCD4, FoxP3 by MTX Occurs in Part Through Toxicity. In order to determine how MTX contributes to the selection of TCD4, FoxP3, freshly derived PBMC were stimulated with anti-CD3/CD28 antibodies and IL-2 in the presence of cytotoxic drugs or lethal γ-irradiation. After 7 days there was a significant difference in survival markers Annexin V and 7-AAD in stimulated T cells receiving any cytotoxic insult with stimulation (FIG. 1B-I). The selection of TCD4, FoxP3 was not as consistent as cytotoxicity. […] With the exception of ribosomal elongation inhibitor G418, each cytotoxic treatment appeared to increase the percentage of surviving TCD4, FoxP3. See Bar-Nun S. et al., Biochimica et biophysica acta 1983, 741(1):123-127. […] Without wishing to be bound by theory, this pathway is likely related to the reduced proliferation rate of Treg, and appears to be ribosomally mediated as G418 can inhibit this general trend of increasing TCD4, FoxP3 percentage. See Cao M. et al., International journal of radiation biology 2011, 87(1):71-80.

TCD4, FoxP3 [2] = assay: Depletion of TCD4, FoxP3 in resting, unstimulated PBMC
Description: Representative flow diagrams of resting PBMC in FIG. 14D—upper panel show the loss in expression of FoxP3 for CD4+ T cells after treatment with G418. […] Thus, […] TCD4, FoxP3 are depleted following treatment with aminoglycoside G418.

Jurkat = assay: AThyR transgene selection in electroporated Jurkat, eGFP+ viable cells by PI exclusion; details: anti-folate toxicity
Protocol: The Amaxa Nucleofector® II (Lonza, Allendale, N.J.) was used to electroporate both Jurkat and human PBMC. Electroporation of Jurkat cells utilized a modified buffer (Chicaybam et al., Proceedings of the National Academy of Sciences of the United States of America 2002, 99(6):3400-3405) containing 5 mM KCl, 15 mM MgCl2, 120 mM Na2HPO4/NaH2PO4, pH 7.2, and 50 mM DMSO, where 10^6 Jurkat cells per cuvette were electroporated using program T-14 before immediate transfer to CM. The addition of drug occurred 48 hours after electroporation and cell culture remained undisturbed until sampling for gene expression on days 10-12 post electroporation. Human PBMC electroporation followed a previously described protocol (Rushworth et al., supra). […]
To test the enhanced survival of each AThyR, constructs individually expressing DHFR^FS, TYMS^SS, and NeoR were ligated into the same backbone containing Sleeping Beauty (SB) transposable elements upstream of eGFP (FIG. 1B), eGFP was used to track the predominance of surviving genetically-modified T cells. […] Jurkat were assessed for eGFP expression in viable cells by propidium iodide (PI) exclusion on day 10-12 (FIG. 1C). […] Overall survival and mean fluorescence intensity (MFI) of eGFP are also given in FIG. 2AI and AII, respectively.

Compound	Selection of TCD4, FoxP3 in surviving population at lethal dose (TCD4, FoxP3 [1])	Expression of CD25, CTLA-4, or loss of IL-2 (Treg)	Expression of Treg-specific marker LAP (Treg)	Suppression by treated Treg above untreated Treg (Teff)	Selection or depletion of TCD4, FoxP3, dose dependence (TCD4, FoxP3 [1])	Cytotoxicity, dose dependence (PBMC)	also measured
O=c1[nH]cc(F)c(=O)[nH]1 [5-FU, 5-fluorouracil]	Significant increases	no significant difference	significantly increased	improved suppression			
CN[C@@H]1[C@@H](O)[C@@H](O[C@@H]2[C@@H](O)[C@H](O[C@H]3O[C@H]([C@@H](C)O)[C@@H](O)[C@H](O)[C@H]3N)[C@@H](N)C[C@H]2N)OC[C@]1(C)O [G418]	depleted				significantly depleted TCD4, FoxP3 at two moderate drug doses; also recorded: Depletion		Cytotoxicity, dose dependence (PBMC; thawed PBMC, 7 days): significantly cytotoxic at all doses tested; Depletion of TCD4, FoxP3 under resting conditions (TCD4, FoxP3 [2]; PBMC rested in CM 9 days): Significant depletion; Depletion of CD4+, FoxP3+, Ki-67+ cells (TCD4, FoxP3 [2]; resting PBMC, 9 days): significant G418 mediated depletion; Depletion of CD4+, FoxP3+, Ki-67neg cells (TCD4, FoxP3 [2]; resting PBMC, 9 days): not significantly depleted; Surviving TCD4, FoxP3 in the Treg compartment (Treg; Day 21, drug for first 7 days): persistently decreased surviving Treg; Treg markers (CD25, CTLA-4, decreased IL-2, LAP) with FoxP3 expression (Treg; after stimulation on day 21): decreased
CN(Cc1cnc2nc(N)nc(N)c2n1)c1ccc(C(=O)N[C@@H](CCC(=O)O)C(=O)O)cc1 [MTX, methotrexate]	Significant increases	no significant difference	significantly increased	improved suppression	significant elevation of TCD4, FoxP3, at lower doses	cytotoxic at all doses tested	Relative toxicity to T cells (Jurkat): more toxic to T cells than Pem
CO[C@H]1C[C@@H]2CC[C@@H](C)[C@@](O)(O2)C(=O)C(=O)N2CCCC[C@H]2C(=O)O[C@H]([C@H](C)C[C@@H]2CC[C@@H](O)[C@H](OC)C2)CC(=O)[C@H](C)/C=C(\C)[C@@H](O)[C@@H](OC)C(=O)[C@H](C)C[C@H](C)/C=C/C=C/C=C/1C [Rapamycin]						only occurred at the highest doses	
Cc1c(N)nc([C@H](CC(N)=O)NC[C@H](N)C(N)=O)nc1C(=O)N[C@H](C(=O)N[C@H](C)[C@@H](O)[C@H](C)C(=O)N[C@H](C(=O)NCCC1=N[C@@H](c2nc(C(=O)NCCCCN=C(N)N)cs2)CS1)[C@@H](C)O)[C@@H](O[C@@H]1O[C@@H](CO)[C@@H](O)[C@H](O)[C@@H]1O[C@H]1O[C@H](CO)[C@@H](O)[C@H](OC(N)=O)[C@@H]1O)c1cnc[nH]1 [Zeocin]					insignificant		
gentamicin							Depletion of TCD4, FoxP3 in resting PBMC (TCD4, FoxP3 [2]; 7 days): depletion of TCD4, FoxP3
